The source of these data is ChEMBL document CHEMBL1157265, “Chaetoglobosin U, a cytochalasan alkaloid from endophytic Chaetomium globosum IFB-E019” (J Nat Prod, 2006).

Each structure is given as a SMILES string.

The test system of the experiment is KB. In words: Cytotoxicity against human KB cells after 48 hrs by MTT assay. The class given is functional, cell-based.
As to `C/C1=C\[C@@H](C)C/C=C/[C@H]2[C@@H]3O[C@]3(C)[C@@H](C)[C@H]3[C@H](Cc4c[nH]c5ccccc45)NC(=O)[C@]32C(=O)CC[C@H](O)C1=O` [CHAETOGLOBOSIN F], the 50% inhibitory concentration (IC50) stood at 52 µM. The value for `C/C1=C\[C@@H](C)C/C=C/[C@H]2[C@@H]3O[C@]3(C)[C@@H](C)[C@H]3[C@H](Cc4c[nH]c5ccccc45)NC(=O)[C@]32C(=O)CCC(=O)C1=O` [CHAETOGLOBOSIN C] was 34 µM; that for `C/C1=C\[C@@H](C)C/C=C/[C@H]2[C@@H]3O[C@]3(C)[C@@H](C)[C@H]3[C@H](Cc4c[nH]c5ccccc45)NC(=O)[C@]32c2ccc([nH]2)C(=O)C1=O` [PENOCHALASIN A] was 48 µM.

As for `CC1=C(O)C(=O)[C@@H]2CC(=O)[C@@]34C(=O)N[C@@H](Cc5c[nH]c6ccccc56)[C@@H]3[C@H](C)[C@@]3(C)O[C@H]3[C@@H]4/C=C/C[C@H](C)[C@@H]12` [CHAETOGLOBOSIN U], the IC50 was determined as 16 µM. `CC1=C(C)[C@H]2[C@H](Cc3c[nH]c4ccccc34)NC(=O)[C@]23C(=O)CC[C@H](O)C(=O)/C(C)=C/[C@@H](C)C/C=C/[C@H]3[C@@H]1O` [CHAETOGLOBOSIN E] returned an IC50 of 40 µM.

Usually IC50 stands for the concentration that gives 50% inhibition. A higher IC50 goes with lower potency.
